Values quoted from earlier work, collected in PubChem BioAssay AID1259409 (Chemical Carcinogenesis Research Information System (CCRIS), 2018).

System: rodent chemically induced tumor inhibition, incidence and multiplicity
Assay: CCRIS tumor inhibitor studies

SMILES: C=Cc1c(C)c2[n-]c1=CC1=NC(=CC3=C(C)C(=C([O-])[O-])C(=N3)C(CC(=O)[O-])=C3N=C(C=2)C(C)C3CCC(=O)[O-])C(CC)=C1C.[Cu+2].[Na+].[Na+].[Na+] (stereo not drawn)
- tumour outcome (control, treated, inhibition, significance) (Carcinogen: 2,2'-DIHYDROXY-DI-N-PROPYLNITROSAMINE, 53609-64-6, N-ETHYL-N-HYDROXYETHYLNITROSAMINE, 13147-25-6, 3,2'-DIMETHYL-1,4-, Carcinogen: 2,2'-DIHYDROXY-DI-N-PROPYLNITROSAMINE, 53609-64-6, N-ETHYL-N-HYDROXYETHYLNITROSAMINE, 13147-25-6, 3,2'-DIMETHYL-1,4-, Dose [Inhibitor]: 0, 1% IN DIET FOR 4 WK BEGINNING 1 D PRIOR TO FIRST CARCINOGEN DOSE (STUDY DURATION: 36 WK), Route [Inhibitor]: ORAL, Species: RAT, Strain/Sex: F344/MALE, Target Tissue: Type of Lesion: KIDNEY: ADENOMA, Dose [Carcinogen]: 1000 MG/KG BW DHPN TWICE, 1500 MG/KG EHEN TWICE, 75 MG/KG BW DMAB 3 TIMES, SEQUENTIALLY OVER 3 WK, Promoter: NONE USED): 6/10 (60%), 6/13 (46%), 23%, not significant
- tumour outcome (control, treated, inhibition, significance) (Carcinogen: 2,2'-DIHYDROXY-DI-N-PROPYLNITROSAMINE, 53609-64-6, N-ETHYL-N-HYDROXYETHYLNITROSAMINE, 13147-25-6, 3,2'-DIMETHYL-1,4-, Carcinogen: 2,2'-DIHYDROXY-DI-N-PROPYLNITROSAMINE, 53609-64-6, N-ETHYL-N-HYDROXYETHYLNITROSAMINE, 13147-25-6, 3,2'-DIMETHYL-1,4-, Dose [Inhibitor]: 0, 1% IN DIET FOR 4 WK BEGINNING 1 D PRIOR TO FIRST CARCINOGEN DOSE (STUDY DURATION: 36 WK), Route [Inhibitor]: ORAL, Species: RAT, Strain/Sex: F344/MALE, Target Tissue: Type of Lesion: LUNG: ADENOMA, Dose [Carcinogen]: 1000 MG/KG BW DHPN TWICE, 1500 MG/KG EHEN TWICE, 75 MG/KG BW DMAB 3 TIMES, SEQUENTIALLY OVER 3 WK, Promoter: NONE USED): 5/10 (50%), 8/13 (62%), -24%, not significant
- tumour outcome (control, treated, inhibition, significance) (Carcinogen: 2-AMINO-1-METHYL-6-PHENYLIMIDAZO[4,5-B]PYRIDINE, 105650-23-5, Dose [Inhibitor]: 0, 1% IN DIET FOR 54 WK (STUDY DURATION: 54 WK), Route [Inhibitor]: ORAL, Species: RAT, Strain/Sex: F344/FEMALE, Target Tissue: Type of Lesion: COLON: ADENOMA, Dose [Carcinogen]: 0.02% IN DIET FOR 54 WK, Promoter: NONE USED): 2/20 (10%), 4/20 (20%), -100%, not significant
- tumour outcome (control, treated, inhibition, significance) (Carcinogen: 2-AMINO-1-METHYL-6-PHENYLIMIDAZO[4,5-B]PYRIDINE, 105650-23-5, Dose [Inhibitor]: 0, 1% IN DIET FOR 54 WK (STUDY DURATION: 54 WK), Route [Inhibitor]: ORAL, Species: RAT, Strain/Sex: F344/FEMALE, Target Tissue: Type of Lesion: MAMMARY GLAND: ADENOCARCINOMA, Dose [Carcinogen]: 0.02% IN DIET FOR 54 WK, Promoter: NONE USED): 8/20 (40%), 3/20 (15%), 63%, not significant
- tumour outcome (control, treated, inhibition, significance) (Carcinogen: 2-AMINO-1-METHYL-6-PHENYLIMIDAZO[4,5-B]PYRIDINE, 105650-23-5, Dose [Inhibitor]: 0, 1% IN DIET FOR 54 WK (STUDY DURATION: 54 WK), Route [Inhibitor]: ORAL, Species: RAT, Strain/Sex: F344/FEMALE, Target Tissue: Type of Lesion: MAMMARY GLAND: FIBROADENOMA, Dose [Carcinogen]: 0.02% IN DIET FOR 54 WK, Promoter: NONE USED): 2/20 (10%), 0/20 (0%), 100%, not significant
- tumour outcome (control, treated, inhibition, significance) (Carcinogen: 7,12-DIMETHYLBENZ[A]ANTHRACENE [57-97-6], Dose [Inhibitor]: 0.5% IN 0.2 ML DMSO/ACETONE (15:85) 1 D PRIOR TO CARCINOGEN DOSE (STUDY DURATION: 31 WK), Route [Inhibitor]: DERMAL, Species: MOUSE, Strain/Sex: ICR/FEMALE, Target Tissue: Type of Lesion: SKIN: TUMOR, Dose [Carcinogen]: 0.2 UMOL ONCE (STUDY DURATION: 31 WK), Promoter: 12-O-TETRADECANOYLPHORBOL-13-ACETATE [16561-29-8]): 100%, 87%, 13%, not significant
- tumour outcome (control, treated, inhibition, significance) (Carcinogen: 7,12-DIMETHYLBENZ[A]ANTHRACENE [57-97-6], Dose [Inhibitor]: 0.5% IN 0.2 ML DMSO/ACETONE (15:85) 1 D PRIOR TO CARCINOGEN DOSE AND 10 MIN PRIOR TO EACH PROMOTER DOSE FOR 30 WK (STUDY, Route [Inhibitor]: DERMAL, Species: MOUSE, Strain/Sex: ICR/FEMALE, Target Tissue: Type of Lesion: SKIN: TUMOR, Dose [Carcinogen]: 0.2 UMOL ONCE (STUDY DURATION: 31 WK), Promoter: 12-O-TETRADECANOYLPHORBOL-13-ACETATE [16561-29-8]): 100%, 27%, 73%, p<0.005
- tumour outcome (control, treated, inhibition, significance) (Carcinogen: 7,12-DIMETHYLBENZ[A]ANTHRACENE [57-97-6], Dose [Inhibitor]: 0.5% IN 0.2 ML DMSO/ACETONE (15:85) 10 MIN PRIOR TO EACH PROMOTER DOSE FOR 30 WK (STUDY DURATION: 30 WK), Route [Inhibitor]: DERMAL, Species: MOUSE, Strain/Sex: ICR/FEMALE, Target Tissue: Type of Lesion: SKIN: TUMOR, Dose [Carcinogen]: 0.2 UMOL ONCE (STUDY DURATION: 30 WK), Promoter: 12-O-TETRADECANOYLPHORBOL-13-ACETATE [16561-29-8]): 100%, 40%, 60%, p<0.005
- tumour outcome (control, treated, inhibition, significance) (Carcinogen: BENZO[A]PYRENE-7,8-DIHYDRODIOL-9,10-EPOXIDE, 58917-67-2, Dose [Inhibitor]: 0, 15 MG/KG BW ONCE 30 MIN PRIOR TO CARCINOGEN DOSE (STUDY DURATION: 24 WK), Route [Inhibitor]: GAVAGE, Species: MOUSE, Strain/Sex: ICR/FEMALE, Target Tissue: Type of Lesion: SKIN: PAPILLOMA, Dose [Carcinogen]: 0.1 UMOL ONCE, Promoter: 12-O-TETRADECANOYLPHORBOL-13-ACETATE, 16561-29-8): 98%, 70%, 29%, not calculated
- tumour outcome (control, treated, inhibition, significance) (Carcinogen: BENZO[A]PYRENE, 50-32-8, Dose [Inhibitor]: 0, 15 MG/KG BW ONCE 30 MIN PRIOR TO CARCINOGEN DOSE (STUDY DURATION: 40 WK), Route [Inhibitor]: GAVAGE, Species: MOUSE, Strain/Sex: ICR/FEMALE, Target Tissue: Type of Lesion: SKIN: PAPILLOMA, Dose [Carcinogen]: 0.3 UMOL ONCE, Promoter: 12-O-TETRADECANOYLPHORBOL-13-ACETATE, 16561-29-8): 97%, 78%, 20%, not calculated
- tumour outcome (control, treated, inhibition, significance) (Carcinogen: DIETHYLNITROSAMINE, 55-18-5, Dose [Inhibitor]: 0, 2000 PPM IN DIET FOR 4 WK DURING INITIATION (STUDY DURATION: 24 WK), Route [Inhibitor]: ORAL, Species: RAT, Strain/Sex: F344/MALE, Target Tissue: Type of Lesion: LIVER: ADENOMA, Dose [Carcinogen]: 100 MG/KG BW 1/WK FOR 3 WK, Promoter: PHENOBARBITAL, 50-06-6): 95%, 70%, 26%, p<0.05
- tumour outcome (control, treated, inhibition, significance) (Carcinogen: DIETHYLNITROSAMINE, 55-18-5, Dose [Inhibitor]: 0, 2000 PPM IN DIET FOR 4 WK DURING INITIATION (STUDY DURATION: 24 WK), Route [Inhibitor]: ORAL, Species: RAT, Strain/Sex: F344/MALE, Target Tissue: Type of Lesion: LIVER: CARCINOMA, Dose [Carcinogen]: 100 MG/KG BW 1/WK FOR 3 WK, Promoter: PHENOBARBITAL, 50-06-6): 70%, 60%, 14%, not significant
- tumour outcome (control, treated, inhibition, significance) (Carcinogen: DIETHYLNITROSAMINE, 55-18-5, Dose [Inhibitor]: 0, 2000 PPM IN DIET FOR 20 WK BEGINNING 1 WK POST CARCINOGEN TREATMENT (STUDY DURATION: 24 WK), Route [Inhibitor]: ORAL, Species: RAT, Strain/Sex: F344/MALE, Target Tissue: Type of Lesion: LIVER: ADENOMA, Dose [Carcinogen]: 100 MG/KG BW 1/WK FOR 3 WK, Promoter: NONE USED): 13%, 13%, 0%, not significant
- tumour outcome (control, treated, inhibition, significance) (Carcinogen: DIETHYLNITROSAMINE, 55-18-5, Dose [Inhibitor]: 0, 2000 PPM IN DIET FOR 20 WK BEGINNING 1 WK POST CARCINOGEN TREATMENT (STUDY DURATION: 24 WK), Route [Inhibitor]: ORAL, Species: RAT, Strain/Sex: F344/MALE, Target Tissue: Type of Lesion: LIVER: ADENOMA, Dose [Carcinogen]: 100 MG/KG BW 1/WK FOR 3 WK, Promoter: PHENOBARBITAL, 50-06-6): 95%, 63%, 34%, p<0.02
- tumour outcome (control, treated, inhibition, significance) (Carcinogen: DIETHYLNITROSAMINE, 55-18-5, Dose [Inhibitor]: 0, 2000 PPM IN DIET FOR 20 WK BEGINNING 1 WK POST CARCINOGEN TREATMENT (STUDY DURATION: 24 WK), Route [Inhibitor]: ORAL, Species: RAT, Strain/Sex: F344/MALE, Target Tissue: Type of Lesion: LIVER: CARCINOMA, Dose [Carcinogen]: 100 MG/KG BW 1/WK FOR 3 WK, Promoter: NONE USED): 29%, 31%, -7%, not significant
- tumour outcome (control, treated, inhibition, significance) (Carcinogen: DIETHYLNITROSAMINE, 55-18-5, Dose [Inhibitor]: 0, 2000 PPM IN DIET FOR 20 WK BEGINNING 1 WK POST CARCINOGEN TREATMENT (STUDY DURATION: 24 WK), Route [Inhibitor]: ORAL, Species: RAT, Strain/Sex: F344/MALE, Target Tissue: Type of Lesion: LIVER: CARCINOMA, Dose [Carcinogen]: 100 MG/KG BW 1/WK FOR 3 WK, Promoter: PHENOBARBITAL, 50-06-6): 70%, 63%, 10%, not significant
- tumour outcome (control, treated, inhibition, significance) (Dose [Inhibitor]: 0, 500 PPM IN DIET FOR 2 WK ADMINISTERED WITH CARCINOGEN (STUDY DURATION: 9 MO), Route [Inhibitor]: ORAL, Species: FISH, Strain/Sex: RAINBOW TROUT/MALE, FEMALE, Target Tissue: Type of Lesion: LIVER: TUMOR, Promoter: NONE USED): 16%, 12%, 25%, p=0.29
- tumour outcome (control, treated, inhibition, significance) (Dose [Inhibitor]: 0, 500 PPM IN DIET FOR 2 WK ADMINISTERED WITH CARCINOGEN (STUDY DURATION: 9 Mo), Route [Inhibitor]: ORAL, Species: FISH, Strain/Sex: RAINBOW TROUT/MALE, FEMALE, Target Tissue: Type of Lesion: LIVER: TUMOR, Promoter: NONE USED): 7%, 3%, 57%, p=0.04
